In patent US8247211B2, “Glycopeptide antibiotics” (American Cyanamid Company, priority 2001, dated 2012):
Converted amounts (≈) assume the structure as drawn.

Experiments:
Assay in all cases: In vitro antibacterial evaluation: minimum inhibitory concentration (MIC), broth dilution method
Format in all cases: cell-based
Conditions in all cases: broth dilution, 18 hours at 35° C.
Enterococcus sp. = test system: Enterococcus sp.
How it was run: (§1)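 NCCLS M7-A2 broth dilution with Mueller-Hinton II, testing 64-0.06 μg/mL antibiotic against 5×10^5 CFU/mL inocula. Test strains include recent methicillin-, penicillin- or vancomycin-resistant clinical isolates. MIC is the lowest concentration preventing growth.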

Staphylococcus sp. = test system: Staphylococcus sp.
How it was run: as §1

Streptococcus sp. = test system: Streptococcus sp.
How it was run: as §1

Escherichia coli = test system: Escherichia coli

MIC Enterococcus avium (GC 4558) (Enterococcus sp.; Enterococcus avium (GC 4558)): 16 µg/mL (≈ 14.7 µM)
MIC Enterococcus faecalis (ATCC 29212) (Enterococcus sp.; Enterococcus faecalis (ATCC 29212)): 64 µg/mL (≈ 58.7 µM)
MIC Enterococcus faecalis (GC 2242) (Enterococcus sp.; Enterococcus faecalis (GC 2242)): 32 µg/mL (≈ 29.4 µM)
MIC Enterococcus faecalis (GC 2691) (Enterococcus sp.; Enterococcus faecalis (GC 2691)): 32 µg/mL (≈ 29.4 µM)
MIC Enterococcus faecalis (GC 3059) (Enterococcus sp.; Enterococcus faecalis (GC 3059)): 64 µg/mL (≈ 58.7 µM)
MIC Enterococcus faecalis (GC 4552) (Enterococcus sp.; Enterococcus faecalis (GC 4552)): 64 µg/mL (≈ 58.7 µM)
MIC Enterococcus faecalis (GC 4553) (Enterococcus sp.; Enterococcus faecalis (GC 4553)): 16 µg/mL (≈ 14.7 µM)
MIC Enterococcus faecalis (GC 4554) (Enterococcus sp.; Enterococcus faecalis (GC 4554)): 64 µg/mL (≈ 58.7 µM)
MIC Enterococcus faecalis (GC 6189) (Enterococcus sp.; Enterococcus faecalis (GC 6189)): 32 µg/mL (≈ 29.4 µM)
MIC Enterococcus faecium (GC 2243) (Enterococcus sp.; Enterococcus faecium (GC 2243)): 32 µg/mL (≈ 29.4 µM)
MIC Enterococcus faecium (GC 4556) (Enterococcus sp.; Enterococcus faecium (GC 4556)): 64 µg/mL (≈ 58.7 µM)
MIC Enterococcus faecium (GC 4557) (Enterococcus sp.; Enterococcus faecium (GC 4557)): 8 µg/mL (≈ 7.34 µM)
MIC Enterococcus avium (GC 4558) (Enterococcus sp.): 16 µg/mL (≈ 14.7 µM)
MIC Enterococcus faecalis (ATCC 29212) (Enterococcus sp.): 64 µg/mL (≈ 58.7 µM)
MIC Enterococcus faecalis (GC 2242) (Enterococcus sp.): 32 µg/mL (≈ 29.4 µM)
MIC Enterococcus faecalis (GC 2691) (Enterococcus sp.): 32 µg/mL (≈ 29.4 µM)
MIC Enterococcus faecalis (GC 3059) (Enterococcus sp.): 64 µg/mL (≈ 58.7 µM)
MIC Enterococcus faecalis (GC 4552) (Enterococcus sp.): 64 µg/mL (≈ 58.7 µM)
MIC Enterococcus faecalis (GC 4553) (Enterococcus sp.): 16 µg/mL (≈ 14.7 µM)
MIC Enterococcus faecalis (GC 4554) (Enterococcus sp.): 64 µg/mL (≈ 58.7 µM)
MIC Enterococcus faecalis (GC 6189) (Enterococcus sp.): 32 µg/mL (≈ 29.4 µM)
MIC Enterococcus faecium (GC 2243) (Enterococcus sp.): 32 µg/mL (≈ 29.4 µM)
MIC Enterococcus faecium (GC 4556) (Enterococcus sp.): 64 µg/mL (≈ 58.7 µM)
MIC Enterococcus faecium (GC 4557) (Enterococcus sp.): 8 µg/mL (≈ 7.34 µM)
MIC Staphylococcus aureus-SMITH (GC 4543) (Staphylococcus sp.; strain GC 4543): 8 µg/mL (≈ 7.34 µM)
MIC Coagulase Negative Staphylococcus (GC 4547) (Staphylococcus sp.; strain GC 4547): 8 µg/mL (≈ 7.34 µM)
MIC Coagulase Negative Staphylococcus (GC 4548) (Staphylococcus sp.; strain GC 4548): 4 µg/mL (≈ 3.67 µM)
MIC Coagulase Negative Staphylococcus (GC 4549) (Staphylococcus sp.; strain GC 4549): 16 µg/mL (≈ 14.7 µM)
MIC Coagulase Negative Staphylococcus (GC 4551) (Staphylococcus sp.; strain GC 4551): 8 µg/mL (≈ 7.34 µM)
MIC Coagulase Negative Staphylococcus (GC 6257) (Staphylococcus sp.; strain GC 6257): 4 µg/mL (≈ 3.67 µM)
MIC Staphylococcus aureus-SMITH (GC 4543) (Staphylococcus sp.; strain SMITH GC 4543): 8 µg/mL (≈ 7.34 µM)
MIC Streptococcus agalactiae (GC 4564) (Streptococcus sp.; Streptococcus agalactiae (GC 4564)): 8 µg/mL (≈ 7.34 µM)
MIC Streptococcus pneumoniae (ATCC 6301) (Streptococcus sp.; Streptococcus pneumoniae (ATCC 6301)): 8 µg/mL (≈ 7.34 µM)
MIC Streptococcus pneumoniae (GC 1894) (Streptococcus sp.; Streptococcus pneumoniae (GC 1894)): 16 µg/mL (≈ 14.7 µM)
MIC Streptococcus pneumoniae (GC 4565) (Streptococcus sp.; Streptococcus pneumoniae (GC 4565)): 16 µg/mL (≈ 14.7 µM)
MIC Streptococcus pyogenes (GC 4563) (Streptococcus sp.; Streptococcus pyogenes (GC 4563)): 4 µg/mL (≈ 3.67 µM)
MIC Streptococcus agalactiae (GC 4564) (Streptococcus sp.): 8 µg/mL (≈ 7.34 µM)
MIC Streptococcus pneumoniae (ATCC 6301) (Streptococcus sp.): 8 µg/mL (≈ 7.34 µM)
MIC Streptococcus pneumoniae (GC 1894) (Streptococcus sp.): 16 µg/mL (≈ 14.7 µM)
MIC Streptococcus pneumoniae (GC 4565) (Streptococcus sp.): 16 µg/mL (≈ 14.7 µM)
MIC Streptococcus pyogenes (GC 4563) (Streptococcus sp.): 4 µg/mL (≈ 3.67 µM)
MIC Escherichia coli (ATCC 25922) (Escherichia coli): 32 µg/mL (≈ 29.4 µM)
MIC Escherichia coli (GC 4559) (Escherichia coli): 32 µg/mL (≈ 29.4 µM)
MIC Escherichia coli (GC 4560) (Escherichia coli): 8 µg/mL (≈ 7.34 µM)
Structure (SMILES): CC(c1ccccc1)C1NC(=O)CNC(=O)C(CO)NC(=O)C(C(O)C2CNC(=N)N2C2OC(CO)C(O)C(O)C2O)NC(=O)C(C(O)C2CNC(=N)N2)NC(=O)C(Cc2ccc3oc(-c4cccc(F)c4)nc3c2)NC1=O (stereo not drawn) [Example 30, Cyclo[3-[2-(3-fluorophenyl)-1,3-benzoxazol-5-yl]alanyl-3-(2-iminoimidazolidin-4-yl)seryl-3-(3-hexopyranosyl-2-iminoimidazolidin-4-yl)serylserylglycyl-β-methylphenylalanyl]]
MIC Staphylococcus haemolyticus (GC 4546) (Staphylococcus sp.; strain GC 4546): 4 µg/mL (≈ 3.67 µM)
